According to article PMC8747370, “Characterization of Two BAHD Acetyltransferases Highly Expressed in the Flowers of Jasminum sambac (L.) Aiton” (Plants, 2021):

Experiments:
6xHis-JsBEAT2 = tested on: T1, 6xHis-JsBEAT2; experiment: GC-MS of benzyl acetate formed, curve fit; format: biochemical, Jasminum sambac; conditions: 250 mM Tris-HCl pH 7.5, 25 mM MgCl2, 25 mM KCl, 10 mM β-mercaptoethanol, 30 °C, 1 h
T1 construct: full-length cDNA, N-terminal 6xHis tag (pQE30), E. coli M15, Ni-NTA purified
Source text: GC-MS of benzyl acetate formed, curve fit on 6xHis-JsBEAT2

GST-JsBEAT1 = tested on: T2, GST-JsBEAT1; experiment: GC-MS of benzyl acetate formed, curve fit; format: biochemical, Jasminum sambac; conditions: 250 mM Tris-HCl pH 7.5, 25 mM MgCl2, 25 mM KCl, 10 mM β-mercaptoethanol, 30 °C, 1 h
T2 construct: tag kept
Source text: GC-MS of benzyl acetate formed, curve fit on GST-JsBEAT1

| Compound | Km (6xHis-JsBEAT2; with acetyl-CoA (fixed concentration not restated)) | Km (GST-JsBEAT1; 300 μM acetyl-CoA (fixed)) | Km (6xHis-JsBEAT2; with benzyl alcohol (fixed concentration not restated)) | Km (GST-JsBEAT1; 300 μM benzyl alcohol (fixed)) |
| --- | --- | --- | --- | --- |
| OCc1ccccc1 [benzyl alcohol] | 279 ± 26.5 µM | 447 ± 108 µM | – | – |
| CC(=O)SCCNC(=O)CCNC(=O)[C@H](O)C(C)(C)COP(=O)(O)OP(=O)(O)OC[C@H]1O[C@@H](n2cnc3c(N)ncnc32)[C@H](O)[C@@H]1OP(=O)(O)O [acetyl-CoA] | – | – | 317 ± 31.7 µM | 546 ± 94.5 µM |
